Source: BindingDB's records for patent US12247013 (Antabio, 2025)

Molecular target: Elastase (Pseudomonas aeruginosa (strain ATCC 15692 / DSM 22644 / CIP 104116 / JCM 14847 / LMG 12228 / 1C / PRS 101 / PAO1), UniProt P14756)
Experiment: Fluorometric Assay
Procedure: Method: 10 to 140 ng/ml purified LasB is incubated with 250 μM Abz-Ala-Gly-Leu-Ala-p-Nitro-Benzyl-Amide in 50 mM Tris-HCl pH 7.4, 2.5 mM CaCl2), 0.01% of Triton X100 at 37° C. LasB activity (corresponding to fluorescence emission induced by substrate hydrolysis) is measured over 30 min at 37° C. with a fluorescence plate reader such as the Perkin Elmer Envision or similar. Different range of inhibitor concentrations are routinely assessed depending of inhibitor potency from 0.0016 to 200 μM (2-fold dilutions series) in order to determine IC50.

Elastase, sequence (P14756 whole entry): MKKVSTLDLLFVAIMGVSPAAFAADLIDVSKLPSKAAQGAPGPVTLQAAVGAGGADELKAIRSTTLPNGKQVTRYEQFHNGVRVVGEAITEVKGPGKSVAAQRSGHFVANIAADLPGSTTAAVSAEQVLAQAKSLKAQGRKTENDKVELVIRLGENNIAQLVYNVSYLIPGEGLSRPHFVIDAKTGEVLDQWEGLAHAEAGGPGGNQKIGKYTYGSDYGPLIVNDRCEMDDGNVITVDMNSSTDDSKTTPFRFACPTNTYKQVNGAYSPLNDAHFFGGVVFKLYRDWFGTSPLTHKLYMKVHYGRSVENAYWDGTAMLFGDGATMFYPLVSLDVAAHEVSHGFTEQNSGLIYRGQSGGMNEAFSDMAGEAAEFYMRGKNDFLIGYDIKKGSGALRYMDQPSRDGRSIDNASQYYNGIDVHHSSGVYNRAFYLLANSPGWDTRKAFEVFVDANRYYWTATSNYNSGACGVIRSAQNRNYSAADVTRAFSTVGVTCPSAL

With COc1cc2sc(CNC(=O)C3(CC(=O)O)Cc4cc(F)c(F)cc4C3)nc2cc1C(=O)N1CCN(C)CC1 [US12247013, Example 34] the Ki was < 50 nM.
